This is an account of results in US20250230151A1, “COMPOUNDS FOR CANCERS DRIVEN BY BRAF MUTATION” (THE BOARD OF TRUSTEES OF THE UNIVERSITY OF ILLINOIS, priority 2021, published 2025).

What is called Papp A→B is the apparent permeability from the apical to the basolateral side of a cell layer. Read a low Papp A→B as slow passage. As a reminder, the Papp B→A is the apparent permeability from the basolateral to the apical side of a cell layer. What is called IC50 is the point on the concentration scale where inhibition reaches its midpoint.

Each structure is given as a SMILES string.

One series deals with T1, P-gp (Homo sapiens, UniProt P08183).
T1 construct: host or cells: MDCK (MDR1-MDCK)
Nature of the series: MDR1-MDCK P-gp transwell bidirectional transport assay. To be noted: 10 μM, 90 min; for Papp A→B at 90 min, 10 µM / Papp B→A at 90 min, 10 µM / efflux ratio at 90 min, 10 µM: dog, MDCK-MDR1, MDR1-MDCK; for efflux ratio at 90 min, 10 µM: read-out: ER (efflux ratio) (converted). The class given is in vitro ADME. As to the method: A novel compound collection composed of complex and diverse compounds derived from natural products, termed “Complexity-to-Diversity Collection” was employed. […] The CtD compounds were evaluated by the efflux pump and their permeability using the P-gp transwell assay using adapted and optimized known protocols. Compound transport across epithelial cells overexpressing P-gp from basolateral-to-apical and apical-to-basolateral directions were quantified to calculate permeability and efflux ratio.
P-gp transwell bidirectional transport assays. Unless noted otherwise, the transport assay was performed in triplicate in batches of 16 or 24 test compounds, with each batch containing quinidine as a substrate control and propranolol as a non-substrate control. MDR1-MDCK cells were plated at a density of 300,000 cells/cm^2 onto 96-well Falcon™ Multiwell Insert System with 1 µm pore polycarbonate filters with angled-bottom receiver plates (Coming) and were fed with the cell growth medium on day 2.
The donor solution was prepared by adding 1 mM DMSO stocks of compounds to make the final concentration […], and the receiver solution was prepared with equivalent volume of DMSO to make 1% DMSO in final assay chamber volumes.
After 80-96 hours since seeding, the growth media on both sides was aspirated. To the transwell plate (apical side), 50 μL of receiver and donor solutions prepared on a 96-well plate were added, and it was placed on top of a separate angled-bottom 96-well plate (basolateral side) containing 260 μL of receiver and donor solutions.
Following 90 minutes of incubation at 37° C. with shaking at 90 rpm, 20 μL aliquot of samples were taken from both the donor and receiver chambers, and the apical and basolateral sides. Aliquots of 4 test compounds were pooled for each category: apical-donor, apical-receiver, basolateral-donor, basolateral-receiver. To measure CO and mass balance, initial donor samples from both apical and basolateral side were set aside from the assay plate. Acetonitrile twice the volume of pooled samples was added and mixed thoroughly, and precipitated proteins were removed by centrifugation at 20,000 r.c.f for 10 minutes.
To ascertain the MDCK monolayer integrity, the solution on apical side contained 100 µM Lucifer Yellow (Millipore-Sigma). After 90 minutes of compound transport, Lucifer Yellow concentration in the basal well was measured using SpectraMax M3 (Molecular Devices) set to an excitation wavelength of 430 nm and an emission wavelength of 540 nm.
Samples were analyzed with the 5500 QTRAP LC/MS/MS system (AB Sciex) with a 1200 series HPLC system (Agilent Technologies) including a degasser, an autosampler, and a binary pump. The liquid chromatography separation was performed on an Agilent SB-Aq column (4.6×50 mm, 5 μm) (Agilent Technologies) with mobile phase A (0.1% formic acid in water) and mobile phase B (0.1% formic acid in acetonitrile). The flow rate was 0.3 ml min^−1. The linear gradient was optimized for each compound. The autosampler was set at 5° C. The injection volume was 15 μL. Mass spectra were acquired with both positive electrospray ionization at the ion spray voltage of 5,500 V and negative electrospray ionization at the ion spray voltage of −4,500 V. The source temperature was 450° C. The curtain gas, ion source gas 1, and ion source gas 2 were 33, 50 and 65, respectively. Multiple reaction monitoring was used to quantify metabolites.
Efflux data calculations.

The next series relates to A375 cells. Nature of the series: 72-hour cell viability assay (Alamar Blue), A375. Type of series: cell-based, human. To be noted: Homo sapiens; for IC50: A-375, 72 h, 72-hour incubation, Alamar Blue, V600E BRAF; for Emax: A-375, A375, 72-hour incubation. As to the method:
(§1) Cell Culture and reagents. All cell lines were grown in a 37° C., 5% CO2, humidified environment, in media containing 1% penicillin/streptomycin. Cell culture conditions are as follows: MDCK cells transfected with MDR1 (or ABCB1) were obtained from the Netherlands Cancer Institute (Amsterdam, The Netherlands) and maintained in DMEM with 10% fetal bovine serum (FBS, Gemini). Traditional cell lines A375, CHL-1, B16F10, and U118MG were grown in DMEM with 10% FBS, SK-MEL-28, U87 and T98G in EMEM with 10% FBS, AM-38 in EMEM with 20% HI-FBS (Gibco), HT29 in McCoy's 5A with 10% FBS, HCT116 in RPMI with 10% FBS. Compounds were dissolved in DMSO (1% final concentration, Sigma-Aldrich) for cell culture studies.
(§2) Cell viability assays. Cells were harvested, seeded in a 96-well plate and allowed to adhere overnight. Compound was added to each well in DMSO (1% final concentration). Cells were incubated for 72 hours before viability was assessed by the Alamar Blue Assay. Raptinal ([…]) was used as a dead control.

The subject of a further series is HCT116 cells. Nature of the series: 72-hour cell viability assay (Alamar Blue), HCT116. The class given is cell-based. To be noted: Homo sapiens, HCT-116, WT BRAF, colon, read-out: HCT116 (WT) IC50. The method, then: as §1, §2
A general note: The colour change of resazurin is a common sign of viable cells or microbes.

Another series concerns SK-MEL-28 cells. Nature of the series: 72-hour cell viability assay (Alamar Blue), SK-MEL-28. The class given is cell-based. To be noted: Homo sapiens, SK-MEL-28, V600E BRAF, melanoma. The method, then:
as §1, §2

Series [1] in a line: Blood-brain barrier penetrance, brain and serum levels after single IV injection. Type of series: in vivo. To be noted: CD-1, mouse, 60 min after single 25 mg/kg IV injection, read-out: brain-to-serum ratio. The method, then:
Blood-brain barrier penetrance P-gp in vivo assays. All experimental procedures were reviewed and approved by the University of Illinois Institutional Animal Care and Use Committee (Protocol number: 19191). CD-1 mice were purchased from Charles River and acclimated for 4-7 days before use. Mice were administered elacridar or its vehicle at 2.5 mg/kg via lateral tail vein injection. Thirty-minutes post injection, mice were then treated with compounds at 25 mg/kg intravenously now in the other tail vein. At each time point, mice were sacrificed and blood was collected by lacerating the right auricle with iris scissors. An 18-gauge angiocatheter was inserted through the left ventricle, and all residual circulatory volume was removed by perfusing 0.9% saline solution via an analog peristaltic pump. Brains were harvested from the cranial vault and flash frozen. Blood samples were centrifuged at 13,000 ref for 10 minutes and the supernatant serum was stored at −80° C. until analysis. Brain samples were homogenized in ice-cold methanol and centrifuged first at 2000 ref for three minutes and then 13,000 ref for ten minutes and supernatant and tissue debris were separated and stored at −80° C. The resultant supernatant and serum were analyzed by LC-MS/MS to determine compound concentrations. […] All compounds were administered at 5 mL/kg.

Series [2] relates to MAPK signaling (phospho-MEK1/2, phospho-ERK1/2) in A375 cells. Nature of the series: Immunoblotting of MEK1/2 and ERK1/2 phosphorylation, A375. The class given is cell-based, human. To be noted: A375, highest concentrations (10 μM), 24 h. The method, then: Immunoblotting. Cells were lysed using RIPA buffer containing phosphatase (BioVision) and protease inhibitor cocktail (Calbiochem). Protein concentration was determined using the BCA assay (Pierce). Cell lysates containing […] of protein were loaded into each lane of 4% to 20% gradient gels (Bio-Rad) for SDS-PAGE. Proteins were transferred onto PDVF membrane for Western blot analysis. Blots were blocked with BSA for one hour followed by incubation with primary antibody overnight (dilution according to manufacturer's protocols), and then secondary antibody was incubated for one hour. Blots were then imaged with a ChemiDoc Touch (Bio-Rad) after incubation with SuperSignal West Pico Solution (ThermoFischer) following manufacturer's protocols. All antibodies were purchased from Cell Signaling Technology: p-ERK (9101S), ERK (4695S), p-MEK (9121S), MEK (8727S), vinculin (13901S) Rabbit IgG-HRP (7074), […] (5125).

T1 sequence (P08183 whole entry): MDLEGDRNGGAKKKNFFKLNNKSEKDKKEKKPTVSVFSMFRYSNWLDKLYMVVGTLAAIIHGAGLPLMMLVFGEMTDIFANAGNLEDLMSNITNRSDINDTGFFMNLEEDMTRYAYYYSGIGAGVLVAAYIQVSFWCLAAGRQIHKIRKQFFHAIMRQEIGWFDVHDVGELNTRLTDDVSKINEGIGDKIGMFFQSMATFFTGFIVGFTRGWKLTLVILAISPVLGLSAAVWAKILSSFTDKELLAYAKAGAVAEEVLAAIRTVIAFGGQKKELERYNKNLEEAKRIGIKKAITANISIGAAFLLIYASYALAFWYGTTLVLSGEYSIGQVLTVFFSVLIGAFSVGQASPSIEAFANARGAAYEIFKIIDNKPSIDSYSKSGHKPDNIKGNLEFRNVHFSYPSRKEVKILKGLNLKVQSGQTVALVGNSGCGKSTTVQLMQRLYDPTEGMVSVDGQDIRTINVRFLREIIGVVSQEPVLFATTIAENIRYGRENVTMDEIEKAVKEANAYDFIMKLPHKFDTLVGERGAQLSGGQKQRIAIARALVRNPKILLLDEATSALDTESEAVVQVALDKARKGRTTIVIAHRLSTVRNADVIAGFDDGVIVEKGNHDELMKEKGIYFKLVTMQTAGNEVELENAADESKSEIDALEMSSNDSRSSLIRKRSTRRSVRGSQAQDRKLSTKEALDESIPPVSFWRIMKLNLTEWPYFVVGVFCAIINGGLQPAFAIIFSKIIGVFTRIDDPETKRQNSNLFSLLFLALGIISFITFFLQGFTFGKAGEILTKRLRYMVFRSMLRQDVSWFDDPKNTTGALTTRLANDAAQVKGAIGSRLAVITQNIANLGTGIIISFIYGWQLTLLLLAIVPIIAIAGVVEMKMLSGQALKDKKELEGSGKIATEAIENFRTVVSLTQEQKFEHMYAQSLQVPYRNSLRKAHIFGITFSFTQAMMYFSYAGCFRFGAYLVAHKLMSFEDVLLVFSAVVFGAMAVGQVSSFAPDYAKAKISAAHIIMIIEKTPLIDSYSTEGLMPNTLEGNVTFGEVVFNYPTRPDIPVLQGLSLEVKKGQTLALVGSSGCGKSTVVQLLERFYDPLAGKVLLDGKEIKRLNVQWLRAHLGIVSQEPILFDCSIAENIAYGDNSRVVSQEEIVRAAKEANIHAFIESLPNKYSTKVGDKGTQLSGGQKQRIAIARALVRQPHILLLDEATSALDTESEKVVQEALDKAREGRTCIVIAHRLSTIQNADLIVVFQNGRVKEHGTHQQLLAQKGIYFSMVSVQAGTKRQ

Consider `CC(C)(C)c1nc(-c2cccc(NS(=O)(=O)c3c(F)cccc3F)c2F)c(-c2ccnc(CCCCC(=O)O)n2)s1` [6-131, 5-(4-(2-(tert-butyl)-4-(3-((2,6-difluorophenyl)sulfonamido)-2-fluorophenyl)thiazol-5-yl)pyrimidin-2-yl)pentanoic acid], for which, at P-gp, the apical-to-basolateral permeability (Papp A→B) at 90 min, 10 µM came to 0.449 ± 0.008 ×10⁻⁶ cm/s; the Papp B→A at 90 min, 10 µM was 1.03 ± 0.166 ×10⁻⁶ cm/s; the efflux ratio at 90 min, 10 µM was 1.93 ± 0.08. Moreover, in the series with A375 cells, the IC50 amounted to 1580 ± 458 nM and the Emax came out at 60%.
In the case of `CC(C)(C)c1nc(-c2c(F)ccc(NS(=O)(=O)c3cc(C(F)(F)F)ccc3C(F)(F)F)c2F)c(-c2ccnc(N)n2)s1` [6-145, N-(3-(5-(2-aminopyrimidin-4-yl)-2-(tert-butyl)thiazol-4-yl)-2,4-difluorophenyl)-2,5-bis(trifluoromethyl)benzenesulfonamide], at P-gp, the apparent permeability from apical to basolateral (Papp A→B) at 90 min, 10 µM worked out at 0.94 ± 0.05 ×10⁻⁶ cm/s; the Papp B→A at 90 min, 10 µM worked out at 5.66 ± 0.19 ×10⁻⁶ cm/s; the efflux ratio at 90 min, 10 µM was 6.05 ± 0.5. In the series on A375 cells, this compound showed an IC50 greater than 3000 nM.
Consider `CC(C)(C)c1nc(-c2c(F)ccc(NS(=O)(=O)c3cc(C(F)(F)F)ccc3C(F)(F)F)c2F)c(-c2ccnc(NCCCCC(=O)O)n2)s1` [6-150, 5-((4-(4-(3-((2,5-bis(trifluoromethyl)phenyl)sulfonamido)-2,6-difluorophenyl)-2-(tert-butyl)thiazol-5-yl)pyrimidin-2-yl)amino)pentanoic acid], for which, on P-gp, the Papp A→B at 90 min, 10 µM stood at 0.518 ×10⁻⁶ cm/s; the Papp B→A at 90 min, 10 µM is 0.398 ± 0.149 ×10⁻⁶ cm/s; the efflux ratio at 90 min, 10 µM is 0.6. The compound further yielded a 50% inhibitory concentration (IC50) with A375 cells greater than 50000 nM.
As for `CC(C)(C)c1nc(-c2cccc(NS(=O)(=O)c3cc(C(F)(F)F)ccc3C(F)(F)F)c2F)c(-c2ccnc(NCCCCC(=O)O)n2)s1` [6-173, 5-((4-(4-(3-((2,5-bis(trifluoromethyl)phenyl)sulfonamido)-2-fluorophenyl)-2-(tert-butyl)thiazol-5-yl)pyrimidin-2-yl)amino)pentanoic acid], the Papp B→A at 90 min, 10 µM at P-gp is 0.46 ± 0.086 ×10⁻⁶ cm/s. In addition, in the series on A375 cells, the IC50 is greater than 50000 nM.
In the same order, the values of `CC(C)(C)c1nc(-c2c(F)ccc(NS(=O)(=O)c3ccc(F)cc3C(F)(F)F)c2F)c(-c2ccnc(NCCCCC(=O)O)n2)s1` [6-179, 5-((4-(2-(tert-butyl)-4-(2,6-difluoro-3-((4-fluoro-2-(trifluoromethyl)phenyl)sulfonamido)phenyl)thiazol-5-yl)pyrimidin-2-yl)amino)pentanoic acid] are 1.79 ± 0.064 ×10⁻⁶ cm/s and 14700 ± 6160 nM.
`CC(C)(C)c1nc(-c2cccc(NS(=O)(=O)c3c(F)cccc3F)c2F)c(-c2ccnc(CCCC(=O)O)n2)s1` [6-191, 4-(4-(2-(tert-butyl)-4-(3-((2,6-difluorophenyl)sulfonamido)-2-fluorophenyl)thiazol-5-yl)pyrimidin-2-yl)butanoic acid]: on P-gp, the Papp B→A at 90 min, 10 µM was 1.45 ± 0.172 ×10⁻⁶ cm/s. In the series with A375 cells, this compound showed an IC50 of 558 ± 118 nM and an Emax of 60%.
Turning to `CCCS(=O)(=O)Nc1cc(Cl)cc(-c2nc(C(C)(C)C)sc2-c2ccnc(NCC(C)CC(=O)O)n2)c1F` (stereo not drawn) [6-265, 4-((4-(2-(tert-butyl)-4-(5-chloro-2-fluoro-3-(propylsulfonamido)phenyl)thiazol-5-yl)pyrimidin-2-yl)amino)-3-methylbutanoic acid], the IC50 came out at 8840 nM in the series with HCT116 cells, 124 ± 4.86 nM in the series with SK-MEL-28 cells and 113 ± 10.7 nM in the series on A375 cells.
As to `CCCS(=O)(=O)Nc1cc(Cl)cc(-c2nc(C(C)(C)C)sc2-c2ccnc(NCC(C)C(F)C(=O)O)n2)c1F` (stereo not drawn) [8-41, 4-((4-(2-(tert-butyl)-4-(5-chloro-2-fluoro-3-(propylsulfonamido)phenyl)thiazol-5-yl)pyrimidin-2-yl)amino)-2-fluoro-3-methylbutanoic acid], the IC50 is greater than 1000 nM in the series with HCT116 cells, 246 ± 8.73 nM in the series on SK-MEL-28 cells and 301 ± 39.9 nM in the series on A375 cells.
The like results for `CCCS(=O)(=O)Nc1cc(Cl)cc(-c2nc(C(C)(C)C)sc2-c2ccnc(NCC[C@@H](C)CC(=O)O)n2)c1F` [8-43, (R)-5-((4-(2-(tert-butyl)-4-(5-chloro-2-fluoro-3-(propylsulfonamido)phenyl)thiazol-5-yl)pyrimidin-2-yl)amino)-3-methylpentanoic acid] were, in that order, 5130 ± 382 nM, 51.1 ± 1.35 nM and 38.2 ± 3.29 nM.
Turning to `COC(=O)N[C@@H](C)CNc1nccc(-c2cn(C(C)C)nc2-c2cc(Cl)cc(NS(C)(=O)=O)c2F)n1` [Encorafenib, reference compound], the “ER (efflux ratio)” value at P-gp (MDR1-MDCK) worked out at 21.8. At P-gp, this compound returned an apical-to-basolateral permeability (Papp A→B) at 90 min, 10 µM of 1.32 ± 0.602 ×10⁻⁶ cm/s and a Papp B→A at 90 min, 10 µM of 14.7 ± 1.8 ×10⁻⁶ cm/s. In the series on A375 cells, this compound had a concentration for half-maximal inhibition (IC50) of 5.17 ± 0.412 nM. The Kp at 60 min in series [1] lay within 0.0014 to 0.0069.
Consider `CCCS(=O)(=O)Nc1ccc(F)c(C(=O)c2c[nH]c3ncc(Cl)cc23)c1F` [PLX4720, reference compound], for which, in series [1], the Kp at 60 min was 0.0014 to 0.0069. The “inhibition of ERK1/2 phosphorylation after 24 h” value in series [2] is “diminished inhibition”.
